According to patent publication US7183252B2, “Indole peptidomimetics as thrombin receptor antagonists” (Ortho-McNeil Pharmaceutical, Inc., priority 1999, dated 2007):
Like-named read-outs stand apart in the source and are kept apart here.

Legend:
gel-filtered platelets = experiment: In vitro inhibition of thrombin-induced gel-filtered platelet aggregation; type: cell-based; details: human gel-filtered platelets, agonist thrombin 50 μL of 1 unit/mL, read-out: Thrmb IC50 (Thrombin-induced aggregation of gel-filtered platelets)
Outline: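 Gel-filtered (Sepharose 2B) human platelets from citrated PRP, 2×10^7 per sample, in Tyrode's buffer pH 7.4 with BSA and added calcium, preincubated with test compound. Aggregation induced by thrombin (50 μL of 1 unit/mL) and followed as light transmission over 3 min. Inhibition is taken relative to control-treated platelets.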

[1] = target: T1, thrombin receptor (PAR-1) (Homo sapiens, UniProt P25116); experiment: In vitro thrombin receptor binding assay (CHRF membranes); details: tritiated 721-40 radioligand, read-out: Bndg IC50 (Thrombin receptor binding)
T1 construct: CHRF membranes (Jones, Biochim. Biophys. Acta 1992, 1136, 272) are thawed from −70° C; endogenous in cells; host or cells: CHRF cell membranes
T1 sequence (P25116 22-425): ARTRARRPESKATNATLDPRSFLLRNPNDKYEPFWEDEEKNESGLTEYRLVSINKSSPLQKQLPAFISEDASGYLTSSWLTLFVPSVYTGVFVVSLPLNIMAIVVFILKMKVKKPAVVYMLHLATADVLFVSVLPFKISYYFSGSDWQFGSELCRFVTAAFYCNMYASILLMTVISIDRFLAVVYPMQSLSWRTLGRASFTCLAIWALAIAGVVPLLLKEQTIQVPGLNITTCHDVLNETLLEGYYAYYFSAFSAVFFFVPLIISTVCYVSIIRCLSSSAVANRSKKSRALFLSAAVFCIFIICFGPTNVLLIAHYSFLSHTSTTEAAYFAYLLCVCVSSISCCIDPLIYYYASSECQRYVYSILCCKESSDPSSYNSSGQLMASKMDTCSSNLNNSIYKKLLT
Outline: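 CHRF cell membranes incubated 30 min with tritiated peptide agonist 721–40 and compound at 3.7 μg/mL final (0.6% DMSO) in HEPES/MgCl2/BSA buffer. Nonspecific binding defined with unlabeled 721–40; bound radioactivity counted after filtration onto PEI-treated filters.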

Row | Structure (SMILES) | IC50 (gel-filtered platelets; Platelet) | IC50 [1] | IC50 (gel-filtered platelets)
1 | COc1ccc(C[C@H](NC(=O)Nc2ccc3c(c2)c(CN2CCSC2)cn3Cc2ccc(F)cc2)C(=O)N[C@@H](CCCNC(=N)N)C(=O)NCc2ccccc2)cc1 [Compound 163] | 30 µM | 3 µM | –
2 | CCN(CC)Cc1cn(CCc2ccc(F)cc2)c2cc(NC(=O)N[C@@H](Cc3ccc(F)c(F)c3)C(=O)N[C@@H](CCCNC(=N)N)C(=O)NCc3ccccc3)ccc12 [Compound 76] | 1.1 µM | 0.2 µM | –
3 | CCN(CC)Cc1cn(Cc2ccccc2C)c2cc(NC(=O)N[C@@H](Cc3ccc(N)cc3)C(=O)N[C@@H](CCCNC(=N)N)C(=O)NCc3ccccc3)ccc12 [Compound 35] | 13 µM | 13.1 µM | –
4 | N=C(N)NCCC[C@H](NC(=O)[C@@H](Cc1ccc(F)c(F)c1)NC(=O)Nc1ccc2c(CN3CCCC3)cn(Cc3c(Cl)cccc3Cl)c2c1)C(=O)NCc1ccccc1 [Compound 84] | – | 3.2 µM | 14.9 µM
5 | NCCC[C@H](NC(=O)[C@H](Cc1ccc(Cl)cc1)NC(=O)Nc1ccc2c(CN3CCCC3)cn(Cc3c(Cl)cccc3Cl)c2c1)C(=O)NCc1ccccc1Cl [Compound 99] | 0.74 µM | 1.4 µM | –
6 | NCC[C@H](NC(=O)[C@H](Cc1ccc(F)c(F)c1)NC(=O)Nc1ccc2c(CN3CCCC3)cn(Cc3c(Cl)cccc3Cl)c2c1)C(=O)NCCc1c[nH]cn1 [Compound 142] | 1.9 µM | 0.48 µM | –
7 | COc1ccc(C[C@H](NC(=O)Nc2ccc3c(CN4CCCC4)cn(Cc4ccccc4)c3c2)C(=O)N[C@@H](CCCNC(=N)N)C(=O)NCc2ccccc2)cc1 [Compound 22] | 3 µM | 4 µM | –
8 | NCCC[C@H](NC(=O)[C@H](Cc1ccc(F)c(F)c1)NC(=O)Nc1ccc2c(CN3CCCC3)cn(Cc3c(Cl)cccc3Cl)c2c1)C(=O)NCCc1ccncc1 [Compound 109] | 0.84 µM | 0.61 µM | –
9 | Cc1ccccc1Cn1cc(CN2CCCC2)c2ccc(NC(=O)N[C@@H](Cc3c(F)c(F)c(F)c(F)c3F)C(=O)N[C@@H](CCCNC(=N)N)C(=O)NCc3ccccc3)cc21 [Compound 50] | 0.8 µM | 7.6 µM | –
10 | NCCNC(=O)[C@@H](Cc1cccs1)NC(=O)[C@@H](Cc1ccc(Cl)cc1)NC(=O)c1ccc2c(CN3CCCC3)cn(Cc3c(Cl)cccc3Cl)c2c1 [Compound 178] | 40.7 µM | 9.9 µM | –
11 | NCC[C@H](NC(=O)[C@H](Cc1ccc(F)c(F)c1)NC(=O)Nc1ccc2c(CN3CCCC3)cn(Cc3c(Cl)cccc3Cl)c2c1)C(=O)NCCN1CCCC1 [Compound 141] | 0.2 µM | 0.07 µM | –
12 | NC(N)=NCCC[C@H](NC(=O)[C@H](CCc1ccccc1)NC(=O)Nc1ccc2c(CN3CCCC3)cn(Cc3ccc(F)cc3)c2c1)C(=O)NCc1ccccc1 [Compound 27] | 27.3 µM | 14.6 µM | –
13 | C[C@@H](NC(=O)[C@H](CCN)NC(=O)[C@H](Cc1ccc(F)c(F)c1)NC(=O)Nc1ccc2c(CN3CCCC3)cn(Cc3c(Cl)cccc3Cl)c2c1)c1ccccc1 [Compound 157] | – | 0.48 µM | 0.66 µM
14 | COc1ccc(C[C@H](NC(=O)Nc2ccc3c(CN4CCCC4)cn(Cc4c(Cl)cccc4Cl)c3c2)C(=O)N[C@@H](CCCNC(=N)N)C(=O)NCc2ccccc2)cc1 [Compound 14] | 0.49 µM | 1.4 µM | –
15 | N=C(N)NCCC[C@H](NC(=O)[C@H](Cc1ccc(F)c(F)c1)NC(=O)Nc1ccc2c(CN3CCCC3)c(-c3ccccc3)n(Cc3ccc(F)cc3)c2c1)C(=O)NCc1ccc(F)cc1 [Compound 171, L-Argininamide, 3,4-difluoro-N-[[[1-[(4-fluorophenyl)methyl]-2-phenyl-3-(1-pyrrolidinylmethyl)-1H-indol-6-yl]amino]carbonyl]-L-phenylalanyl-N-[(4-fluorophenyl)methyl]-] | 1 µM | 0.1 µM | –
16 | NCCNC(=O)[C@H](Cc1c[nH]cn1)NC(=O)[C@H](Cc1ccc(Cl)cc1)NC(=O)Nc1ccc2c(CN3CCCC3)cn(Cc3c(Cl)cccc3Cl)c2c1 [Compound 134] | 0.95 µM | 1.2 µM | –
17 | Cc1ccccc1Cn1cc(CN2CCC(N(C)C)C2)c2ccc(NC(=O)N[C@H](Cc3ccc(F)c(F)c3)C(=O)N[C@@H](CCCN=C(N)N)C(=O)NCc3ccccc3)cc21 (stereo partly shown) [Compound 90] | > 10 µM | 15.8 µM | –
18 | COc1ccc(C[C@H](NC(=O)Nc2ccc3c(CN4CCCC4)cn(Cc4ccccc4F)c3c2)C(=O)N[C@@H](CCCNC(=N)N)C(=O)NCc2ccccc2)cc1 [Compound 7] | 1.31 µM | 3.6 µM | –
19 | COc1ccc(C[C@H](NC(=O)Nc2ccc3c(CN4CCCC4)cn(Cc4cccc(C)c4)c3c2)C(=O)N[C@@H](CCCNC(=N)N)C(=O)NCC2CCCCC2)cc1 [Compound 9] | 2.5 µM | 10.4 µM | –

Row | Structure (SMILES) | IC50 (gel-filtered platelets; Platelet) | IC50 [1] | IC50 (gel-filtered platelets)
20 | COc1ccc(C[C@H](NC(=O)Nc2ccc3c(CN4CCCC4)cn(Cc4cccc(F)c4)c3c2)C(=O)N[C@@H](CCCNC(=N)N)C(=O)NCc2ccccc2)cc1 [Compound 6] | 3.5 µM | 6.6 µM | –
21 | N=C(N)NCCC[C@H](NC(=O)[C@H](Cc1ccc(F)c(F)c1)NC(=O)Nc1ccc2c(CN3CCCC3)cn(Cc3ccccc3Cl)c2c1)C(=O)NCc1ccccc1 [Compound 55] | 0.34 µM | 11.3 µM | –
22 | NCCC[C@H](NC(=O)[C@H](Cc1ccc(F)c(F)c1)NC(=O)Nc1ccc2c(CN3CCCC3)cn(Cc3c(Cl)cccc3Cl)c2c1)C(=O)NCc1ccccn1 [Compound 117] | 4.1 µM | 1 µM | –
23 | CN(Cc1cn(Cc2c(Cl)cccc2Cl)c2cc(NC(=O)N[C@@H](Cc3ccc(Cl)cc3)C(=O)N[C@@H](CCCN)C(=O)NCCc3ccccc3Cl)ccc12)C1CCCC1 [Compound 119] | 3.2 µM | 6.2 µM | –
24 | COc1ccc(C[C@H](NC(=O)Nc2ccc3c(CN4CCCC4)cn(Cc4ccccc4C)c3c2)C(=O)N[C@@H](CCCNC(=N)N)C(=O)NCc2ccccc2)cc1 [Compound 17] | 0.42 µM | 0.97 µM | –
25 | Cc1coc(CNC(=O)[C@H](CCN)NC(=O)[C@H](Cc2ccc(F)c(F)c2)NC(=O)Nc2ccc3c(CN4CCCC4)cn(Cc4c(Cl)cccc4Cl)c3c2)c1 [Compound 159] | – | 0.7 µM | 0.43 µM
26 | NCCNC(=O)[C@H](Cc1ccccc1)NC(=O)[C@H](Cc1ccc(Cl)cc1)NC(=O)Nc1ccc2c(CN3CCCC3)cn(Cc3c(Cl)cccc3Cl)c2c1 [Compound 133] | 0.86 µM | 1.5 µM | –
27 | N=C(N)NCCC[C@H](NC(=O)[C@H](Cc1cccs1)NC(=O)Nc1ccc2c(CN3CCCC3)cn(Cc3ccc(F)cc3)c2c1)C(=O)NCc1ccccc1 [Compound 28] | 13.8 µM | 4.1 µM | –
28 | CCSC[C@H](NC(=O)[C@H](Cc1ccc(Cl)cc1)NC(=O)Nc1ccc2c(CN3CCCC3)cn(Cc3c(Cl)cccc3Cl)c2c1)C(=O)NCCN [Compound 149] | 1.2 µM | 0.15 µM | –
29 | CCN(CC)Cc1cn(Cc2cccc(C)c2)c2cc(NC(=O)N[C@@H](Cc3ccc(OC(C)C)cc3)C(=O)N[C@@H](CCCNC(=N)N)C(=O)NCc3ccccc3)ccc12 [Compound 43] | 33.5 µM | 5 µM | –
30 | O=C(Nc1ccc2c(CN3CCCC3)cn(Cc3c(Cl)cccc3Cl)c2c1)N[C@@H](Cc1ccc(F)c(F)c1)C(=O)N[C@@H](Cc1c[nH]cn1)C(=O)NCc1ccccc1 [Compound 72] | 0.46 µM | 1.3 µM | –
31 | CCN(CC)Cc1cn(Cc2ccc(F)cc2)c2cc(NC(=O)N[C@@H](Cc3ccc(OC)cc3)C(=O)N[C@@H](CCCNC(=N)N)C(=O)NCCCc3ccccc3)ccc12 [Compound 5] | 2.9 µM | 1.8 µM | –
32 | C=CCOc1ccc(C[C@H](NC(=O)Nc2ccc3c(CN4CCCC4)cn(Cc4cccc(C)c4)c3c2)C(=O)N[C@@H](CCCNC(=N)N)C(=O)NCc2ccccc2)cc1 [Compound 34] | 16.3 µM | 9.7 µM | –
33 | CC(C)[C@H](NC(=O)[C@H](Cc1ccc(Cl)cc1)NC(=O)Nc1ccc2c(CN3CCCC3)cn(Cc3c(Cl)cccc3Cl)c2c1)C(=O)NCCN [Compound 148] | 1.4 µM | 0.14 µM | –
34 | NCC[C@H](NC(=O)[C@H](Cc1cccnc1)NC(=O)Nc1ccc2c(CN3CCCC3)cn(Cc3c(Cl)cccc3Cl)c2c1)C(=O)NCc1ccccc1 [Compound 130] | 27.8 µM | 4.8 µM | –
35 | NCCCC[C@H](NC(=O)[C@H](Cc1ccc(F)c(F)c1)NC(=O)Nc1ccc2c(CN3CCCC3)cn(Cc3c(Cl)cccc3Cl)c2c1)C(=O)NCc1ccccc1 [Compound 70] | 0.31 µM | 0.32 µM | –
36 | NCC[C@H](NC(=O)[C@H](Cc1ccc(F)c(F)c1)NC(=O)Nc1cccc2c1c(CN1CCCC1)cn2Cc1c(Cl)cccc1Cl)C(=O)NCc1ccccc1 [Compound 165] | 4.8 µM | 49.6 µM | –
37 | N=C(N)NCCC[C@H](NC(=O)[C@@H]1Cc2ccccc2CN1C(=O)Nc1ccc2c(CN3CCCC3)cn(Cc3ccc(F)cc3)c2c1)C(=O)NCc1ccccc1 [Compound 30] | > 10 µM | 9 µM | –
38 | NCCC[C@H](NC(=O)[C@H](Cc1cccc(F)c1)NC(=O)Nc1ccc2c(CN3CCCC3)cn(Cc3c(Cl)cccc3Cl)c2c1)C(=O)NC1Cc2ccccc2C1 [Compound 96] | 1 µM | 2.8 µM | –
